From patent US7851505B2, “Thiotungstate analogues and uses thereof” (priority 2003, dated 2010)
“And” between values parts separate entries of the source, which are not always exact repeats. Identical values can stand only once. Like-named read-outs stand apart in the source and are kept apart here.

Tests used:
[1] = Moisture stability of tetrathiotungstate salts; type: physicochemical
[2] = Copper-binding ability: inhibition of cysteine autooxidation; type: biochemical; details: 100 μM Cys, 100 μM coumarin-3-carboxylic acid, 100 μM CuSO4
Experimental: The copper-binding ability of tetrathiotungstate salts was determined according to the ability of tetrathiotungstate salts to inhibit cysteine autooxidation as reported in Table 2 below.

angiogenesis = test: Matrigel plug assay (inhibition of angiogenesis); type: in vivo, athymic nude mice; details: FIG. 1
Experimental: This assay is performed essentially as described by Passaniti et al., Lab Invest. 1992, 67:519-528. Ice-cold Matrigel® (e.g., 500 μL) (Collaborative Biomedical Products, Inc., Bedford, Mass.) is mixed with heparin (e.g., 50 μg/ml), FGF-2 (e.g., 400 ng/ml) and the compound to be tested. In some assays, bFGF may be substituted with tumor cells as the angiogenic stimulus. The Matrigel® mixture is injected subcutaneously into 4-8 week-old athymic nude mice at sites near the abdominal midline, preferably 3 injections per mouse. The injected Matrigel®b forms a palpable solid gel. […] Hemoglobin (Hb) levels are determined using Drabkin's solution (e.g., obtained from Sigma) according to the manufacturers' instructions. […] The amount of fluorescence in the dispersed plug which is determined fluorimetrically serves as a measure of angiogenesis in the plug. […]
Ammonium tetrathiotungstate was assayed in the Matrigel® plug assay as described in Section 5.4.7, supra. Two positive controls were used with positive control 1 measured five days after implantation when treatment began and […] measured five days after implantation when treatment ended. Two negative controls were used with negative control 1 measured five days after implantation when treatment began and […] measured five days after implantation when treatment ended.

[3] = room temperature, 95% relative humidity, two weeks, purity by absorbance, * = partially soluble, ‡ = average of 2 data points

Compound	% degradation [1, 3]	% inhibition ([2]; inhibitor concentration 50 μM)	% inhibition ([2]; inhibitor concentration 10 μM)	% inhibition ([2]; inhibitor concentration 1 μM) [%]	% degradation [1] [%]	inhibition of angiogenesis (angiogenesis)
Cc1cc[n+](C)cc1.Cc1cc[n+](C)cc1.[S]=[W](=[S])([S-])[S-] [Tetrathiotungstate, bis(1,4-dimethylpyridinium)]	2.0%	89.98% and 89.66%	–	–	–	–
Tetrathiotungstate, propane-1,3-bis(trimethylammonium)	–	92.95%	85.53%	–	–	–
CC[N+](CC)(CC)c1ccccc1.CC[N+](CC)(CC)c1ccccc1.[S]=[W](=[S])([S-])[S-] [Tetrathiotungstate, bis(triethylphenyl ammonium)]	−0.12%	91.32%	–	–	–	–
C[N+](C)(C)CCOC(=O)CCCCCCC(=O)OCC[N+](C)(C)C.[S]=[W](=[S])([S-])[S-] [Tetrathiotungstate, suberyldicholine]	18.4* %	–	77.83%	67.74	–	–
C[N+](C)(C)Cc1ccccc1.C[N+](C)(C)Cc1ccccc1.[S]=[W](=[S])([S-])[S-] [Tetrathiotungstate, bis(benzzyltrimethylammonium)]	0.41%	94.62%	–	–	–	–
Tetrathiotungstate, pentane-1,5-bis(trimethylammonium)	–	90.69%	–	–	–	–
CC(=O)OCC[N+](C)(C)C.CC(=O)OCC[N+](C)(C)C.[S]=[W](=[S])([S-])[S-] [Tetrathiotungstate, bis(acetylcholine)]	–	90.36%	–	–	2.4	–
C[n+]1ccccc1C=NO.C[n+]1ccccc1C=NO.[S]=[W](=[S])([S-])[S-] [Tetrathiotungstate, bis(2-hydroxyiminomethyl-1-methyl-pyridinium)]	5.6%	91.15%	–	–	–	–
Tetrathiotungstate, butane-1,4-bis(trimethylammonium)	–	91.75%	87.32%	–	–	–
C[N+](C)(C)c1ccccc1.C[N+](C)(C)c1ccccc1.[S]=[W](=[S])([S-])[S-] [Tetrathiotungstate, bis(trimethylphenylammonium)]	−0.46%	91.53%	–	–	–	–
Tetrathiotungstate, ethylenebis(trimethylammonium)	8.6* %	89.60%	84.66%	–	–	–
C[N+]1(C)CCCC1.C[N+]1(C)CCCC1.[S]=[W](=[S])([S-])[S-] [Tetrathiotungstate, bis(1,1-dimethylpyrrolidinium)]	0.04%	–	–	–	–	–
C[N+](C)(C)CCO.C[N+](C)(C)CCO.[S]=[Mo](=[S])([S-])[S-] [Tetrathiomolybdate, bis (choline), reference compound]	–	–	–	–	36 ± 2	–
CCn1cc[n+](C)c1.CCn1cc[n+](C)c1.[S]=[W](=[S])([S-])[S-] [Tetrathiotungstate, bis(l-ethyl-3-methyl-1H-imidazolium)]	1.3%	91.16%	–	–	–	–
[NH4+].[NH4+].[SH-].[SH-].[S]=[Mo]=[S] [Tetrathiomolybdate, bis(ammonium), reference compound]	–	94.24%	87.71% and 76.69%	68.48	–	–
Tetrathiotungstate, (succinylcholine)	23.3* %	–	81.38%	66.06	–	–
Tetrathiotungstate, bis(ammonium) [reference compound]	−0.46%	95.94%	–	–	–	about 34%
C[N+](C)(C)CCO.C[N+](C)(C)CCO.[S]=[W](=[S])([S-])[S-] [Tetrathiotungstate, bis(choline)]	–	92.54% and 91.99%	–	–	3.0	–
CC(=O)OC(C)C[N+](C)(C)C.CC(=O)OC(C)C[N+](C)(C)C.[S]=[W](=[S])([S-])[S-] (stereo not drawn) [Tetrathiotungstate, bis(acetyl-β-methylcholine)]	4.2%	90.40%	–	–	–	–
NCCNCCNCCN [trientine, reference compound]	–	39.71%	–	0.00	–	–
